Active and inactive are the calls of the source.
How the values were obtained:
[1] = target: T1, Dual specificity protein phosphatase 6 (Rattus norvegicus, UniProt Q64346)
[2] = target: T1, Dual specificity protein phosphatase 6; type: functional
[3] = target: Glyceraldehyde-3-phosphate dehydrogenase (Homo sapiens, UniProt P04406)
[4] = target: T2, Tyrosine-protein phosphatase non-receptor type 7 (Homo sapiens, UniProt P35236); type: functional
T2 sequence (P35236 whole entry): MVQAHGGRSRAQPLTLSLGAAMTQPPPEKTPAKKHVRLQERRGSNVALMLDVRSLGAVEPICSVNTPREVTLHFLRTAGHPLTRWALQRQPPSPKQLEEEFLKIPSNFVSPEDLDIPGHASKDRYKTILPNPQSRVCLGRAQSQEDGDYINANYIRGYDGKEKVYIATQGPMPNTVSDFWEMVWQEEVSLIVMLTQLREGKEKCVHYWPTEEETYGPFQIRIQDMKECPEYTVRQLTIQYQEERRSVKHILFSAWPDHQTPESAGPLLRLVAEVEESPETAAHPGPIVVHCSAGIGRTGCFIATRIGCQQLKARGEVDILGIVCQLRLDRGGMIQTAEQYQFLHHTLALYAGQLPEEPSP

[5] = Trypanosoma cruzi growth suppression in host cells – NIH3T3 host cells, beta-gal luminescence, confirmation (AID 2044); type: functional, cell-based;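 note: intracellular parasites grown in NIH/3T3 mouse fibroblasts as host cells; luminescent beta-galactosidase reporter signal from transgenic T. cruzi replicating inside host cells; inhibitors lower the luminescence signal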
[6] = Luminescence Cell-Based Dose Retest to Confirm Inhibitors of Cancer Stem Cells. [Related pubchem assays (depositor defined):AID2717, AID2721]; type: functional; settings: Homo sapiens
[7] = MIN6 cell viability loss – mouse insulinoma, cytotoxicity control, dose response (AID 2122); type: functional;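 note: confirmatory high-throughput counterscreen run to flag cytotoxic compounds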
[8] = NIH3T3 cell viability loss – ATP luminescence, mouse fibroblasts, counter-screen, dose response (AID 2010); type: functional, cell-based;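 note: cells exposed to compound for about 90 hours before reading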
[9] = decrease of insulin promoter-GFP reporter – imaging, high-content screening, mouse beta cells (AID 1628); type: functional; settings: MIN6
[10] = viability loss of HMLE_sh_eGFP cells – cell-based, luminescence, counter-screen for HMLE_sh_ECad selective toxicity project, dose response (AID 463074); type: functional, Homo sapiens;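 note: HMLE human mammary epithelial cells expressing control shRNA against eGFP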
[11] = target: Dual specificity tyrosine-phosphorylation-regulated kinase 1A (Rattus norvegicus, UniProt Q63470); type: biochemical, Homo sapiens
Escherichia coli = assay: microbe, parasite or virus in culture
ORF 73 = ORF 73 (Human herpesvirus 8, UniProt O40947); assay: KSHV LANA DNA-binding disruption – biochemical, fluorescence polarization, cherry-picked samples, dose response (AID 504725); design: species or system Human gammaherpesvirus 8;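 note: fluorescence polarization of a labeled DNA duplex reporting LANA DNA binding; potency is for inhibitors that block LANA binding to the DNA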
Keap1/Nrf2 = Keap1/Nrf2 (Homo sapiens, UniProt Q14145); assay: disruptors of Keap1 binding to Nrf2 peptide – biochemical, fluorescence polarization, cherry-picked samples, dose response (AID 588683)
Sequence of Keap1/Nrf2 (Q16236 whole entry): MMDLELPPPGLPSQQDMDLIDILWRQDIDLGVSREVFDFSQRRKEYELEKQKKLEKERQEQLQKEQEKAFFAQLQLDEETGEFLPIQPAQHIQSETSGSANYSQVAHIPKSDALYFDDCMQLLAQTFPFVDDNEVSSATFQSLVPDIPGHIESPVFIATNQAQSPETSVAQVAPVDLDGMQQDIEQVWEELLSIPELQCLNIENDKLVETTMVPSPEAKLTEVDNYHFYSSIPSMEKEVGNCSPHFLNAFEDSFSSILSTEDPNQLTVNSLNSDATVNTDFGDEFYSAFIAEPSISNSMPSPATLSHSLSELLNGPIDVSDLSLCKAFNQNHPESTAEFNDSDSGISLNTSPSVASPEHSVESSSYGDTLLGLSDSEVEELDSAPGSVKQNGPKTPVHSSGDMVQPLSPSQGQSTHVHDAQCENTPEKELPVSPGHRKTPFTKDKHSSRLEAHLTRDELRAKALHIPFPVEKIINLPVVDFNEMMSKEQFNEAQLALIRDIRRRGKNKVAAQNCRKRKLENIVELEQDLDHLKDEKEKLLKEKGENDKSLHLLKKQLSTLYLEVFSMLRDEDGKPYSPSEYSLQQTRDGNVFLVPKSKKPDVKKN
Sequence of Keap1/Nrf2 (Q14145 whole entry): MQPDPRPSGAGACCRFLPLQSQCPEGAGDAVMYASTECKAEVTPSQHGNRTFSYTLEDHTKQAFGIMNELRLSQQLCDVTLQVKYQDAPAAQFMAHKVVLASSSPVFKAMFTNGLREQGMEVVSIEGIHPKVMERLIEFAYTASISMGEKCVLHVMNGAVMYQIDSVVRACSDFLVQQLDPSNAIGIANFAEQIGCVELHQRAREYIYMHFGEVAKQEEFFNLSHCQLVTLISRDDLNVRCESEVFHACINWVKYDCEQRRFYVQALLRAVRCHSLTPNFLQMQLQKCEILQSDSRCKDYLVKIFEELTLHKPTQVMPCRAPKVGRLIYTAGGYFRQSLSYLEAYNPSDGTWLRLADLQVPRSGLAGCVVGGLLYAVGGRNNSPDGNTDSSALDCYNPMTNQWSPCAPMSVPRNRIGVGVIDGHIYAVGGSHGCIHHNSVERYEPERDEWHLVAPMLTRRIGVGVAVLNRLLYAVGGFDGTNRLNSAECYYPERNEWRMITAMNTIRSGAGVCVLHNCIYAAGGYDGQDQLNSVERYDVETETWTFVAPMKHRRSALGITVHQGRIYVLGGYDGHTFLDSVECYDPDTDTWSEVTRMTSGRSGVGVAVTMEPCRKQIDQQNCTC

T1 sequence (Q64346 whole entry): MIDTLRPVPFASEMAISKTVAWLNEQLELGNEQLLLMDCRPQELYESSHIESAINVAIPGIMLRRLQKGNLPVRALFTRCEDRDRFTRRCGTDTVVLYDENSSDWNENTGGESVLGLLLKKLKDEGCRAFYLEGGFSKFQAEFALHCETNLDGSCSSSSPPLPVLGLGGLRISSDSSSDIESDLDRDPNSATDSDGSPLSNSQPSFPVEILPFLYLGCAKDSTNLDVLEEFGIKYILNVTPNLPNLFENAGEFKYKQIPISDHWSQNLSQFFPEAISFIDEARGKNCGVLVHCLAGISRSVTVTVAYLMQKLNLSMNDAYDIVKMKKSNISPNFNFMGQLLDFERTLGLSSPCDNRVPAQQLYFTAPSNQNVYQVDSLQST
Sequence of Glyceraldehyde-3-phosphate dehydrogenase (P04406 whole entry): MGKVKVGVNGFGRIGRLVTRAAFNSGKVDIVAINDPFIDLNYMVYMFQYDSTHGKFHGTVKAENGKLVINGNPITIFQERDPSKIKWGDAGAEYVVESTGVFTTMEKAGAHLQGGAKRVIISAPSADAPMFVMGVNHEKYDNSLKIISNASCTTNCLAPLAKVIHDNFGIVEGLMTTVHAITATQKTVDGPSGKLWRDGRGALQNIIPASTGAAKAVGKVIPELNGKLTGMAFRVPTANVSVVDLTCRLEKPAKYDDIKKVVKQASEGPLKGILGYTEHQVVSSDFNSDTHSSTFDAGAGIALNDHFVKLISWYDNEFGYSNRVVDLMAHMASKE
Sequence of ORF 73 (O40947 whole entry): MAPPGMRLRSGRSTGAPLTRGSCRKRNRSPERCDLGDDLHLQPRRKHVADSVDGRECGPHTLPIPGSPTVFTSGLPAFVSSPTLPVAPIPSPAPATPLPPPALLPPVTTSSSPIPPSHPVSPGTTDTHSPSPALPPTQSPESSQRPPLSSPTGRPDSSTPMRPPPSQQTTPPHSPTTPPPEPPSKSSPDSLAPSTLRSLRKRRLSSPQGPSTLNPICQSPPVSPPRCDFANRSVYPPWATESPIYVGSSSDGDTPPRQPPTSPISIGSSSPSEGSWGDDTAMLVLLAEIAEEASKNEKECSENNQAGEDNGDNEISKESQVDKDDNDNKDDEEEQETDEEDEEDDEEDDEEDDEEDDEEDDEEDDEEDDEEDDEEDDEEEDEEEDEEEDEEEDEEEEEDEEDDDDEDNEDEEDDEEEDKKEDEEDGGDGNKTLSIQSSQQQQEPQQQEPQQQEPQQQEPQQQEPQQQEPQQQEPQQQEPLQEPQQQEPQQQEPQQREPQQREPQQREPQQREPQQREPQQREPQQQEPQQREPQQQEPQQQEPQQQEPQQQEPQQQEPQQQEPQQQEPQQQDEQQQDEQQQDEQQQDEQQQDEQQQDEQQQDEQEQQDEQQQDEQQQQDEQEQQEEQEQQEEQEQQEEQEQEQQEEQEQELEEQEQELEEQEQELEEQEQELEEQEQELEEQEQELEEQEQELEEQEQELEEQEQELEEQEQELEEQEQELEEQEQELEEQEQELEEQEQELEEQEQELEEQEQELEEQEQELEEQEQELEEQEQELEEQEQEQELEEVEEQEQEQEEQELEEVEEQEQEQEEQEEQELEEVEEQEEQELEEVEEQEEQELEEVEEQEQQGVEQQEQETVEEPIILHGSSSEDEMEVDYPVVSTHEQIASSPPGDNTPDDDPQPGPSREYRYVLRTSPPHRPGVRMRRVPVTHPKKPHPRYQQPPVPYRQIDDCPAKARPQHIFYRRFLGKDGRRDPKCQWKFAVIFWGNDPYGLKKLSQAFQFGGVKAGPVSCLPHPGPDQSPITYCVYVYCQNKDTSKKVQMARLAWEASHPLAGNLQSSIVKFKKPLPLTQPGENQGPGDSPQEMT

Q: With CCCCCCCCC#CC#CCCCC(=O)O as the compound, how does the IC50 [1] read?
A: > 100 µM (inactive)

Q: What about the IC50 [2] of the same compound?
A: > 100 µM (inactive)

Q: What about the IC50 [3] of the same compound?
A: > 100 µM (not active)

Q: What about the IC50 [4] of the same compound?
A: 96.2 µM (not active)

Q: Which EC50 [5] does the source give for CN1/C(=C\C(=O)COc2ccc3c(c2)OCO3)C(C)(C)c2ccccc21 here?
A: 2.75 µM (active)

Q: What about the AC50 [6] of the same compound?
A: 4.1 µM (active)

Q: What about the IC50 [7] of the same compound?
A: 0.768 µM (active)

Q: What about the EC50 [8] of the same compound?
A: > 60 µM (not active)

Q: And the IC50 [9]?
A: 1.48 µM (active)

Q: And the AC50 [10]?
A: 23.4 µM (active)

Q: For COc1ccc2cc3cc(C(=O)NCCN4CCN(Cc5ccccc5)CC4)oc3nc2c1, which AC50 [11] is on record?
A: 1.51 µM (active)

Q: For CCOc1ccc(S(=O)(=O)Nc2cc(Cl)ccc2O)cc1, which AC50 (Escherichia coli) is on record?
A: 53.7 µM (active)

Q: For CCc1ccc[n+](-c2[n-]c(=O)sc2C=NNC(=S)Nc2ccccc2)c1, which AC50 (ORF 73) is on record?
A: 10.1 µM (active)

Q: What about the AC50 (Keap1/Nrf2) of the same compound?
A: 13.6 µM (active)

From ChEMBL document CHEMBL1201862, “PubChem BioAssay data set” (2004)
